The source of these data is paper PMC6155907 (Molecules : A Journal of Synthetic Chemistry and Natural …, 2016).

For assay [1], the system named is human GLP-1R (GLP-1R-YFP). The assay can be described thus: Confocal microscopy of receptor internalization. To be noted: 5 min after 1 µM GLP-1; HEK-293 transiently expressing GLP-1R-YFP; live cell confocal microscopy; at least three experiments. It counts as cell-based. On the procedure: HEK-293 cells transiently expressing GLP-1R-YFP were plated on to a poly-D-lysin-coated coverslip and mounted on to an “Attofluor” holder (Molecular Probes, Leiden, The Netherlands). The cellular location of GLP-1R-YFP was monitored by live cell confocal microscopy performed on a Zeiss LSM 510 meta system (Carl Zeiss, Oberkochen, Germany). YFP was excited with the 514 nm line of an argon laser, and images were taken with an oil-immersion 63× lens using the factory settings for YFP.

Another assay concerns GLP-1R. The settings on record: radioligand binding and time-resolved fluorescence resonance energy transfer; authors state own rate is in the same range; ref [22],[23]; cited from earlier work.

With `CC[C@H](C)[C@H](NC(=O)[C@H](Cc1ccccc1)NC(=O)[C@H](CCC(=O)O)NC(=O)[C@H](CCCCN)NC(=O)[C@H](C)NC(=O)[C@H](C)NC(=O)[C@H](CCC(N)=O)NC(=O)CNC(=O)[C@H](CCC(=O)O)NC(=O)[C@H](CC(C)C)NC(=O)[C@H](Cc1ccc(O)cc1)NC(=O)[C@H](CO)NC(=O)[C@H](CO)NC(=O)[C@@H](NC(=O)[C@H](CC(=O)O)NC(=O)[C@H](CO)NC(=O)[C@@H](NC(=O)[C@H](Cc1ccccc1)NC(=O)[C@@H](NC(=O)CNC(=O)[C@H](CCC(=O)O)NC(=O)[C@H](C)NC(=O)[C@@H](N)Cc1c[nH]cn1)[C@@H](C)O)[C@@H](C)O)C(C)C)C(=O)N[C@@H](C)C(=O)N[C@@H](Cc1c[nH]c2ccccc12)C(=O)N[C@@H](CC(C)C)C(=O)N[C@H](C(=O)N[C@@H](CCCCN)C(=O)NCC(=O)N[C@@H](CCCNC(=N)N)C(N)=O)C(C)C` [GLP-1, glucagon-like peptide-1], the “cellular location of GLP-1R-YFP after agonist stimulation” value in assay [1] is listed as “the receptor appeared as punctate dots in the cytoplasm”. Also, the “t1/2 of receptor internalization (range of previous studies)” value with GLP-1R is 2 to 3 min.
